Tested on: left ventricular pressure-loaded model mice (TAC mice)
Experiment: Echocardiography in transverse aortic constriction (TAC) left ventricular pressure-loaded model mice
Type: in vivo, C57BL/6 mice
Method: Ten-week-old male C57BL/6 mice (about 25 g) were treated with transverse aortic constriction (TAC) to produce left ventricular pressure-loaded model mice (TAC mice). At 2 weeks after TAC (hypertrophic phase), an osmotic mini-pump (Alzet2006) was implanted subcutaneously, and continuous subcutaneous administration of Compound 011 or a vehicle (a solution obtained by mixing dimethyl sulfoxide and polyethylene glycol 300 in a weight ratio of 1:1) was started at a dose of 5 mg/kg/day. The left ventricular wall thickness (IVS), left ventricular end-diastolic diameter (LVDd), left ventricular fractional shortening (LVFS), and left ventricular ejection fraction (LVEF) were observed and evaluated by echocardiography every two weeks after the start of administration (Compound 011 group: 11 animals; vehicle group: 9 animals). In advance, Compound 011 was administered to non-TAC-treated mice at 5 mg/kg/day with an osmotic mini-pump (Alzet2006) in the same manner, and the blood level (tail vein blood sample) was measured at 2, 4, and 6 weeks after administration and the body blood pressure was measured at 2 weeks after administration to thus confirm that the dose of 5 mg/kg/day could be used for TAC mice.

[1] = 8 weeks after TAC (6 weeks after start of administration), 5 mg/kg/day continuous subcutaneous by osmotic mini-pump, p<0.05 vs. vehicle
[2] = 8 weeks after TAC, 5 mg/kg/day continuous subcutaneous

O=C(O)c1cnc(N2CCN(c3noc4cccc(C(F)(F)F)c34)CC2)c(Cl)c1 [Compound 011, 5-Chloro-6-(4-(4-(trifluoromethyl)benzo[d]isoxazol-3-yl)piperazin-1-yl)nicotinic acid]
progressive deterioration of LVFS and LVEF (5 mg/kg/day continuous subcutaneous, vs. vehicle group): significantly suppressed
LVEF (left ventricular ejection fraction) [1]: 80.2±2.7%
left ventricular fractional shortening (LVFS) at 8 weeks after TAC [1]: 48.8±2.6%
interventricular septum (IVS), difference vs. vehicle group [2]: no significant difference
left ventricular end-diastolic diameter (LVDd), difference vs. vehicle group [2]: no significant difference

From patent US20250073229A1, “PHARMACEUTICAL COMPOSITION FOR PREVENTING AND/OR TREATING HEART FAILURE” (OSAKA UNIVERSITY, priority 2022, published 2025)
